Source: patent US20190054057A1, “IMMUNE BOOSTING DIETARY COMPOUNDS FOR DISEASE CONTROL AND PREVENTION” (THE BOARD OF REGENTS FOR OKLAHOMA STATE UNIVERSITY OFFICE …, priority 2016, published 2019)
Where a SMILES comes first, the peptide text is derived from it. The star is where a group is joined. Cbz = O=C(OCc1ccccc1)*

How the values were obtained:
Assay type in all cases: cell-based
AvBD9 [1] = test: AvBD9 gene expression in chicken HD11 macrophage cells (real-time RT-PCR); settings: for Induction of AvBD9 gene expression: compound alone, different concentrations; for Effect of pathway inhibitor on lactose-induced AvBD9 expression: 1 h inhibitor pretreatment, then 0.2 M lactose 24 h; for Efficacy of AvBD9 induction compared with butyrate: 24 h stimulation; for Induction of AvBD9 gene expression by sugars: 0.2 M, up to 48 h; for Synergy with butyrate in AvBD9 induction: 2 mM butyrate with 0.2 M sugar, 12 h
Description: (§1) Chicken HD11 macrophage cell line was obtained from USDA-Agricultural Research Services (ARS), and chicken HTC macrophage cell line was secured from USDA-ARS. Both HD11 and HTC macrophage cells were propagated in RPMI 1640 containing 10% fetal bovine serum (FBS), 100 μg/ml streptomycin, and 100 U/ml penicillin. Peripheral blood mononuclear cells (PBMCs) were isolated from EDTA-anticoagulated chicken blood by gradient centrifugation with Histopaque 1077 (Sigma) following manufacturer's instructions. Briefly, chicken blood was overlaid onto Histopaque 1077 (Sigma) at 1:1 ratio, and centrifuged at 400×g for 30 min. Interphase containing PBMCs was aspirated and washed 3 times with PBS at 250×g for 10 min. Cell pellet was re-suspended with RPMI 1640, supplemented with 10% FBS, 100 μg/ml streptomycin, 100 U/ml penicillin, and 20 mM HEPES. After being seeded overnight at 2×10^6/well in 6-well tissue culture plates, cells were treated with different concentrations of chemicals. For signaling studies, cells were pre-treated with different signaling agonists or inhibitors for 1 h, followed by stimulation with sodium butyrate or its structural analogs for another 24 h. Cells were then lysed in RNAzol (Molecular Research Center, Cincinnati, Ohio) for RNA extraction.
(§2) Total RNA was extracted from chicken cells and tissues using RNAzol RT (Molecular Research Center) and quantitated using Nanodrop 1000 (Nanodrop Products, Wilmington, Del.). RNA (0.3 μg) was reverse transcribed in 4-μl reactions using Maxima First Strand cDNA Synthesis Kit (Thermo Fisher Scientific, Pittsburgh, Pa.) according to the manufacturer's instructions. The cDNA was then diluted 10 times with RNase-free water prior to real-time PCR analysis of AvBD9 and GAPDH as were described previously. The primers used for AvBD9 primers were […] (SEQ ID NO: 1, forward) and […] (SEQ ID NO: 2, reverse), whereas the primers for chicken glyceraldehyde-3-phosphate dehydrogenase (GAPDH) were […] (SEQ ID NO: 3, forward) and […] (SEQ ID NO: 4, reverse). QuantiTect SYBR Green PCR Kit (Qiagen, Valencia, Calif.) was used in 10 μl reactions with 4 and 1 μl of diluted cDNA for AvBD9 and GAPDH, respectively. Real-time PCR was performed with an initial activation at 95° C. for 10 min, followed by 40 cycles at 94° C. for 15 sec, 55° C. for 20 sec and 72° C. for 30 sec. Melting curve analysis was carried out to confirm the specificity of PCR amplification. Relative fold change in the AvBD9 gene expression was calculated using the ΔΔCt method normalized against the GAPDH levels.

AvBD9 [2] = test: AvBD9 gene expression in chicken peripheral blood mononuclear cells (PBMCs) (real-time RT-PCR); settings: for Effect of pathway inhibitor on butyrate-induced AvBD9 expression: 1 h inhibitor pretreatment, then 2 mM sodium butyrate 24 h; for Effect on AvBD9 induction, compound alone: without butyrate; for AvBD9 gene expression, maximum fold increase, compound alone: 50 to 250 μM, dose-dependent
Description: as §1, §2

AvBD9 [3] = test: as above; settings: 1 h inhibitor pretreatment, then 10 μM quercetin 24 h
AvBD9 [4] = test: AvBD9 gene expression in chicken jejunal explants (real-time RT-PCR); settings: 2 mM butyrate and/or 0.1 M lactose, 24 h
Description: A segment of chicken jejunum was harvested from 1- to 2-week-old broiler chickens, washed thoroughly in cold PBS containing 100 μg/ml of gentamicin, 100 U/ml penicillin, and 100 μg/ml streptomycin, and then cut into a series of 0.5-cm-long segments. Jejunal segments were placed individually in 6-well plates and cultured in 4 ml RPMI 1640 containing 10% FBS, 20 mM HEPES, 100 U/ml penicillin, 100 μg/ml streptomycin, and 100 μg/ml gentamicin. […] Jejunal segments were homogenized in RNAzol RT for RNA extraction.
(§3) The cDNA was then diluted 10 times with RNase-free water prior to real-time PCR analysis of AvBD9 and GAPDH as were described previously. The primers used for AvBD9 primers were […] (SEQ ID NO: 1, forward) and […] (SEQ ID NO: 2, reverse), whereas the primers for chicken glyceraldehyde-3-phosphate dehydrogenase (GAPDH) were […] (SEQ ID NO: 3, forward) and […] (SEQ ID NO: 4, reverse). QuantiTect SYBR Green PCR Kit (Qiagen, Valencia, Calif.) was used in 10 μl reactions with 4 and 1 μl of diluted cDNA for AvBD9 and GAPDH, respectively.

acetyl-histone 4 (Ac-H4) = test: Histone 4 acetylation in chicken HD11 cells (immunoblotting, Ac-H4); settings: 2 mM butyrate and/or 0.2 M lactose, 6 h
Description: After stimulation with various compounds, chicken HD11 cells were washed with PBS and lysed in the RIPA lysis buffer (Santa Cruz Biotechnology, Dallas, Tex.). Protein concentration was measured by the Bradford Assay (Bio-Rad, Hercules, Calif.). For the determination of histone 4 acetylation levels, 20 μg of proteins was separated by 12.5% SDS-PAGE gel and then transferred to a PVDF membrane. After overnight blocking in the blocking buffer at 4° C., the membrane was incubated with a primary rabbit antibody against acetyl-histone 4 (Ac-H4) (Cell Signaling, #8647) in the blocking buffer for 1 h at room temperature. After three washes, the membrane was incubated with an alkaline phosphatase-conjugated goat anti-rabbit IgG antibody (Sigma-Aldrich, St. Louis, Mo.) for 45 min at room temperature. Another membrane was prepared in parallel, but incubated with a rabbit antibody against β-Actin (#A2103) to reveal a similar amount of protein loading. The signaling was visualized by incubation with the ECL reagent (Santa Cruz Biotechnology).

AvBD9 [5] = test: AvBD9 gene expression in chicken HTC macrophage cells (real-time RT-PCR)
Description: For signaling studies, cells were pre-treated with different signaling agonists or inhibitors for 1 h, followed by stimulation with sodium butyrate or its structural analogs for another 24 h.
as §3

CN(C)c1ccc(C(=O)NCCCCCC(=O)NO)cc1 [CAY10398, reference compound]
Induction of AvBD9 gene expression (AvBD9 [1]; 24 h): dose-dependent stimulation

C[C@H]1O[C@@H](n2cnc3c(N)ncnc32)C[C@@H]1O [DDA, 2′-5′-dideoxyadenosine]
Effect of pathway inhibitor on butyrate-induced AvBD9 expression (AvBD9 [2]): strikingly strong, dose-dependent increase

CC(C)C[C@@H](C=O)NC(=O)[C@H](CC(C)C)NC(=O)[C@H](CC(C)C)NC(=O)OCc1ccccc1 [MG132] (Cbz-Leu-Leu-Leu-aldehyde)
Effect of pathway inhibitor on butyrate-induced AvBD9 expression (AvBD9 [2]): nearly complete abolishment

COc1cccc(-c2cc(=O)c3ccccc3o2)c1N [PD98059, reference compound]
Effect of pathway inhibitor on lactose-induced AvBD9 expression (AvBD9 [1]): synergized substantially | Effect of pathway inhibitor on butyrate-induced AvBD9 expression (AvBD9 [2]): strong synergistic AvBD9 induction

S=C(S)N1CCCC1 [PDTC]
Effect of pathway inhibitor on quercetin-mediated AvBD9 expression (AvBD9 [3]): did not show much effect

Nc1ccc2ncnc(NCCc3ccc(Oc4ccccc4)cc3)c2c1 [QNZ, reference compound]
Effect of pathway inhibitor on lactose-induced AvBD9 expression (AvBD9 [1]): no influence

O=C(CCCCCCC(=O)Nc1ccccc1)NO [SAHA, suberoylanilide hydroxamic acid, reference compound]
Induction of AvBD9 gene expression (AvBD9 [1]; 24 h): dose-dependent stimulation

C[S+]([O-])c1ccc(-c2nc(-c3ccncc3)c(-c3ccc(F)cc3)[nH]2)cc1 (centres unmarked) [SB203580, reference compound]
Effect of pathway inhibitor on lactose-induced AvBD9 expression (AvBD9 [1]): no influence | Effect of pathway inhibitor on butyrate-induced AvBD9 expression (AvBD9 [2]): substantial, but not complete reduction

Nc1ncnc2c1ncn2C1CCCO1 (centres unmarked) [SQ22536, reference compound]
Effect of pathway inhibitor on lactose-induced AvBD9 expression (AvBD9 [1]): no influence

CCCCCCCCCCCCCCCc1cccc(O)c1C(=O)O [anacardic acid]
Effect on AvBD9 induction, compound alone (AvBD9 [2]): modest effect

CCCC(=O)OCc1ccccc1 [benzyl butyrate, Benzyl butyrate]
Efficacy of AvBD9 induction compared with butyrate (AvBD9 [1]): comparable efficacy to butyrate | Induction of AvBD9 gene expression (AvBD9 [1]; 24 h): dose-dependently induced

CCCC(=O)[O-].[Na+] [butyrate, Sodium butyrate]
AvBD9 induction, peak fold (AvBD9 [1]; 2 mM butyrate alone, 24 h): approximately 1,750 fold | AvBD9 induction, fold (AvBD9 [4]): 100 fold | Histone 4 acetylation (acetyl-histone 4 (Ac-H4)): minimum histone 4 acetylation

CCCC(=O)Nc1ncnc2c1ncn2[C@@H]1O[C@@H]2COP(=O)(O)O[C@H]2[C@H]1OC(=O)CCC [dibutyryl cAMP, reference compound]
Efficacy of AvBD9 induction compared with butyrate (AvBD9 [1]): comparable efficacy to butyrate | Induction of AvBD9 gene expression (AvBD9 [1]; 24 h): dose-dependently induced

O=C(CO)[C@@H](O)[C@H](O)[C@H](O)CO [fructose]
Induction of AvBD9 gene expression by sugars (AvBD9 [1]): stimulated AvBD9 gene expression in a time-dependent manner

O=C[C@H](O)[C@@H](O)[C@@H](O)[C@H](O)CO [galactose]
Synergy with butyrate in AvBD9 induction (AvBD9 [1]): clear synergy | Induction of AvBD9 gene expression by sugars (AvBD9 [1]): stimulated AvBD9 gene expression in a time-dependent manner

C=C(C)[C@@H](CC=C(C)C)C[C@@]12C[C@@H](CC=C(C)C)C(C)(C)[C@@](CC=C(C)C)(C(=O)C(C(=O)c3ccc(O)c(O)c3)=C1O)C2=O [garcinol]
AvBD9 induction, peak fold increase, compound alone (AvBD9 [2]; garcinol without butyrate): approximately 7 fold

CCCC(=O)OCC(COC(=O)CCC)OC(=O)CCC [glyceryl tributyrate, Glyceryl tributyrate]
Efficacy of AvBD9 induction compared with butyrate (AvBD9 [1]): comparable efficacy to butyrate | Induction of AvBD9 gene expression (AvBD9 [1]; 24 h): dose-dependently induced

O=C(O)CCc1ccccc1 [hydrocinnamic acid, Hydrocinnamic acid]
Induction of AvBD9 gene expression (AvBD9 [1]; 24 h): dose-dependently induced

OC[C@H]1O[C@@H](O[C@H]2[C@H](O)[C@@H](O)C(O)O[C@@H]2CO)[C@H](O)[C@@H](O)[C@H]1O (some centres unmarked) [lactose]
AvBD9 induction, maximum fold (AvBD9 [1]; 0.2 M lactose alone, 6 h): 350 fold | Induction of AvBD9 gene expression by sugars (AvBD9 [1]): stimulated AvBD9 gene expression in a time-dependent manner | AvBD9 induction, fold (AvBD9 [4]): 15 fold | Histone 4 acetylation (acetyl-histone 4 (Ac-H4)): no impact

OC[C@@H](O)[C@@H](O)[C@H](O)[C@H](O)CO [mannitol]
Synergy with butyrate in AvBD9 induction (AvBD9 [1]): comparably synergy

O=C(O)c1cccnc1Nc1cccc(C(F)(F)F)c1 [niflumic acid]
AvBD9 gene expression, maximum fold increase, compound alone (AvBD9 [2]): ~14,000 fold

CS(=O)(=O)Nc1ccc([N+](=O)[O-])cc1Oc1ccccc1 [nimesulide]
AvBD9 gene expression, maximum fold increase, compound alone (AvBD9 [2]): approximately 70 fold

O=c1c(O)c(-c2ccc(O)c(O)c2)oc2cc(O)cc(O)c12 [quercetin]
Reduction of AvBD9 induction at 48 h relative to 24 h (AvBD9 [5]; 40 μM quercetin): 210 fold | AvBD9 expression, fold increase at peak (AvBD9 [5]; 40 μM quercetin, 24 h): approximately 500 fold | Concentration giving peak AvBD9 response (AvBD9 [5]; quercetin alone, 24 h): 40 µM | Induction of AvBD9 gene expression (dose dependence) (AvBD9 [5]; quercetin alone, 24 h): dose-dependent induction | AvBD9 expression, fold increase (AvBD9 [2]; 40 μM quercetin alone, 24 h): approximately 6,500 fold | Induction of AvBD9 (dose dependence) (AvBD9 [2]; quercetin alone, 24 h): dose-dependently induced

Oc1ccc(C=Cc2cc(O)cc(O)c2)cc1 [resveratrol]
Effect on AvBD9 induction, compound alone (AvBD9 [2]): modest effect

CCCC(CCC)C(=O)[O-].[Na+] [sodium valproate, reference compound]
Induction of AvBD9 gene expression (AvBD9 [1]; 24 h): dose-dependent stimulation

CCCC(=O)OC/C=C/c1ccccc1 [trans-cinnamyl butyrate]
Induction of AvBD9 gene expression (AvBD9 [1]; 24 h): dose-dependently induced

OC[C@H]1O[C@H](O[C@H]2O[C@H](CO)[C@@H](O)[C@H](O)[C@H]2O)[C@H](O)[C@@H](O)[C@@H]1O [trehalose]
Synergy with butyrate in AvBD9 induction (AvBD9 [1]): clear synergy

CC(/C=C/C(=O)NO)=C\[C@@H](C)C(=O)c1ccc(N(C)C)cc1 [trichistatin A, reference compound]
Induction of AvBD9 gene expression (AvBD9 [1]; 24 h): dose-dependent stimulation
